Data from paper PMC3233971 (Amino acids, 2010).
Residues, ends and D or L forms follow the SMILES beside them. No end group written: not given here. *: point of attachment. IRDye800CW = CC1(C)C(/C=C/C2=C(Oc3ccc(S(=O)(=O)O)cc3)C(=C/C=C3/N(CCCCS(=O)(=O)O)c4ccc(S(=O)(=O)O)cc4C3(C)C)/CCC2)=[N+](CCCCCC(=O)*)c2ccc(S(=O)(=O)[O-])cc21

Tests used:
[1] = tested on: LS174T tumor; test: Near-infrared fluorescence imaging of LS174T tumor-bearing mice; details: 4 h after i.v. injection; 1 nmol dye/mouse
[2] = tested on: LS174T tumor; format: in vivo, mouse; details: 20 mg/kg i.p. every other day, 3 doses; 12 days after the optical imaging
[3] = tested on: human umbilical endothelial cells (HUVEC); details: 300 μg/ml peptide, 48 h exposure, absorbance 570 nm, n = 6
[4] = tested on: LS174T human colorectal cancer cells; details: 300 μg/ml peptide, 48 h exposure, absorbance 570 nm, n = 6

CC(C)C[C@H](NC(=O)[C@@H](NC(=O)[C@H](Cc1c[nH]c2ccccc12)NC(=O)CCCCC[N+]1=C(C=CC2=C(Oc3ccc(S(=O)(=O)O)cc3)C(=CC=C3N(CCCCS(=O)(=O)O)c4ccc(S(=O)(=O)O)cc4C3(C)C)CCC2)C(C)(C)c2cc(S(=O)(=O)[O-])ccc21)[C@@H](C)O)C(=O)N[C@@H](CCCNC(=N)N)C(=O)N1CCC[C@H]1C(=O)N[C@H](C(=O)N[C@@H](CC(C)C)C(=O)N[C@@H](Cc1c[nH]cn1)C(=O)N[C@H](C(=O)N[C@@H](CC(=O)O)C(=O)N[C@@H](Cc1c[nH]cn1)C(=O)N[C@@H](C)C(=O)O)[C@@H](C)O)[C@@H](C)O [scrambled peptide dye conjugate] (IRDye800CW-WTLRPTLHTDHA-OH; N-terminus and C-terminus assumed)
renal clearance in NIR fluorescence images [1]: cleared through the kidneys much faster than the BRP peptide

bevacizumab: humanized monoclonal antibody directed against human VEGF
tumor volume [2]: 476.6 mm^3

LLADTTHHRPWT [BRP]
cell viability (MTT) [3]: 92.2 ± 2.4%
cell viability (MTT) [4]: 98.3 ± 12.1%
